The supplement of paper PMC10307832

Experiments:
Test in all cases: relative viability (nuclei count vs DMSO), 5 days (fraction); higher = more cells survive
[1] = compound: CC1(C)CNc2cc(NC(=O)c3cccnc3NCc3ccncc3)ccc21 [Motesanib] + COc1cc2c(Oc3ccc(NC(=O)C4(C(=O)Nc5ccc(F)cc5)CC4)cc3F)ccnc2cc1OCCCN1CCOCC1 [Foretinib] (partner 0.25 µM)
Procedure, shortened: (§1)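 For relative viability, nuclei counts in treated wells were divided by those in vehicle wells. Lung cancer cell lines had been pin-tool dosed in 1536-well plates the day after seeding and cultured for 5 days, then fixed and stained in one step (final 0.05% Triton X-100, 1% formaldehyde, 1 ug/ml Hoechst) and imaged at 4×. Doses were one drug alone or a fixed anchor-drug dose plus five library-drug doses (not always all listed) in √10 steps, and values are duplicate-plate medians.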

[2] = compound: CC1(C)CNc2cc(NC(=O)c3cccnc3NCc3ccncc3)ccc21 [Motesanib] + O=C(CCCCCCC(=O)Nc1ccccc1)NO [Vorinostat] (partner 1 µM)
Procedure, shortened: as §1

[3] = compound: C[C@@]1(C(=O)Nc2ccc(F)nc2)CCCN1c1nc(Nc2cc(C3CC3)n[nH]2)c2cccn2n1 + CC(=O)Nc1cccc(-n2c(=O)n(C3CC3)c(=O)c3c(Nc4ccc(I)cc4F)n(C)c(=O)c(C)c32)c1 [Trametinib] (partner 0.02 µM)
Procedure, shortened: as §1

[4] = compound: C[C@@]1(C(=O)Nc2ccc(F)nc2)CCCN1c1nc(Nc2cc(C3CC3)n[nH]2)c2cccn2n1 + CC1(C)CCC(c2ccc(Cl)cc2)=C(CN2CCN(c3ccc(C(=O)NS(=O)(=O)c4ccc(N[C@H](CCN5CCOCC5)CSc5ccccc5)c(S(=O)(=O)C(F)(F)F)c4)cc3)CC2)C1 [Navitoclax] (partner 0.5 µM)
Procedure, shortened: as §1

Cell Line	relative viability ([1]; first compound 0.01 µM)	relative viability ([1]; first compound 0.03162 µM)	relative viability ([1]; first compound 0.1 µM)	relative viability ([1]; first compound 0.3162 µM)	relative viability ([1]; first compound 1 µM)	relative viability ([2]; first compound 0.01 µM)	relative viability ([2]; first compound 0.03162 µM)	relative viability ([2]; first compound 0.1 µM)	relative viability ([2]; first compound 0.3162 µM)	relative viability ([2]; first compound 1 µM)	relative viability ([3]; first compound 0.04 µM)	relative viability ([3]; first compound 0.1265 µM)	relative viability ([3]; first compound 0.4 µM)	relative viability ([3]; first compound 1.265 µM)	relative viability ([4]; first compound 0.04 µM)	relative viability ([4]; first compound 0.1265 µM)	relative viability ([4]; first compound 0.4 µM)	relative viability ([4]; first compound 1.265 µM)
NCI-H322M	1.09	0.998	0.979	0.946	1.06	0.962	0.88	0.871	1.03	0.849	0.435	0.428	0.334	0.347	1.27	1	1.07	1.19
NCI-H441	0.889	0.922	1.13	1	1.03	0.527	0.697	0.7	0.764	0.792	0.23	0.164	0.21	0.211	0.363	0.413	0.116	0.505
NCI-H460	0.942	0.966	1	1.01	1.04	0.635	0.696	0.716	0.726	0.666	0.159	0.0315	0.0726	0.0967	1.08	0.893	1.01	1.23
NCI-H520	0.857	0.79	0.922	0.851	0.948	0.664	0.759	0.687	0.734	0.686	0.753	0.571	0.523	0.591	1.16	0.988	1.04	1.11
NCI-H596	0.817	0.818	0.98	0.656	0.806	0.586	0.546	0.56	0.511	0.711	0.912	0.72	0.654	0.748	1.01	0.809	0.921	1.09
NCI-H647	1.21	1.14	1.21	1.25	1.14	0.506	0.575	0.567	0.769	0.894	0.465	0.419	0.383	0.397	1.1	0.989	0.894	1.14
NCI-H727	0.707	0.98	0.854	1.09	0.883	1.12	1.29	1.39	1.26	1.29	0.312	0.283	0.267	0.221	0.175	0.185	0.106	0.14
NCI-H838	1.17	1.06	1.07	1.14	1.09	0.735	0.75	0.801	0.779	0.737	0.496	0.46	0.346	0.36	1.21	1.01	0.948	1.1
NCI-H1355	1.02	0.96	1.02	1.01	1.03	0.635	0.659	0.707	0.702	0.593	0.36	0.302	0.289	0.346	0.776	0.924	0.787	0.86
NCI-H1395	0.973	0.809	1.05	1.02	0.942	0.56	0.526	0.707	0.794	0.677	1.02	0.863	0.901	0.989	1.33	0.983	1.03	1.24
NCI-H1437	1.28	1.24	1.25	1.3	1.33	0.927	0.73	0.759	0.799	0.852	0.404	0.3	0.277	0.277	1.04	0.828	0.739	0.919
NCI-H1650	1.25	0.816	1.16	1.27	1.23	0.642	0.6	0.714	0.67	0.571	0.672	0.5	0.51	0.572	0.955	1.14	0.955	1.08
NCI-H1651	0.824	0.877	0.845	0.82	0.982	0.475	0.605	0.575	0.583	0.581	0.723	0.798	0.712	0.757	0.963	1.12	0.861	1.16
NCI-H1666	0.979	0.956	0.947	1.03	1.01	0.926	0.978	1.06	1	1.02	0.826	0.688	0.697	0.755	0.823	0.777	0.578	0.581
NCI-H1734	0.932	0.883		0.879	0.968	0.741	0.821	0.813	0.805	0.865	0.527	0.512	0.403	0.563	0.834	0.593	0.661	0.731
NCI-H1755	0.904	0.914	0.925	1.01	0.842	0.672	0.759	0.808	0.945	0.747	0.661	0.692	0.734	0.744	1	0.864	0.913	0.971
NCI-H1793	0.815	0.566	0.721	0.591	0.805	0.836	0.776	0.725	0.892	0.757	0.4	0.355	0.392	0.459	0.31	0.304	0.378	0.351
NCI-H1915	1.07	1.06	1.09	1.14	1.06	0.603	0.489	0.479	0.544	0.527	0.316	0.261	0.272	0.338	0.774	0.767	0.836	0.779

Cell Line	relative viability ([1]; first compound 0.01 µM)	relative viability ([1]; first compound 0.03162 µM)	relative viability ([1]; first compound 0.1 µM)	relative viability ([1]; first compound 0.3162 µM)	relative viability ([1]; first compound 1 µM)	relative viability ([2]; first compound 0.01 µM)	relative viability ([2]; first compound 0.03162 µM)	relative viability ([2]; first compound 0.1 µM)	relative viability ([2]; first compound 0.3162 µM)	relative viability ([2]; first compound 1 µM)	relative viability ([3]; first compound 0.04 µM)	relative viability ([3]; first compound 0.1265 µM)	relative viability ([3]; first compound 0.4 µM)	relative viability ([3]; first compound 1.265 µM)	relative viability ([4]; first compound 0.04 µM)	relative viability ([4]; first compound 0.1265 µM)	relative viability ([4]; first compound 0.4 µM)	relative viability ([4]; first compound 1.265 µM)
NCI-H1944	0.959	0.916	0.861	0.967	0.988	0.52	0.562	0.51	0.634	0.537	0.352	0.363	0.284	0.384	0.991	0.947	0.981	1.08
NCI-H1975	0.978	0.9	0.908	0.898	0.899	0.738	0.616	0.707	0.739	0.652	0.272	0.273	0.313	0.234	0.988	1.06	0.773	0.765
NCI-H1993	0.861	0.829	0.812	0.777	0.881	0.63	0.757	0.881	0.746	0.813	0.468	0.42	0.534	0.46	0.692		0.671	0.716
NCI-H2009	1.23	1.21	1.23	1.22	1.21	0.671	0.636	0.823	0.729	0.71	0.297	0.314	0.235	0.243	1.26	1.23	1.11	1.29
NCI-H2023	0.849	0.838	0.837	0.911	0.927	0.729	0.606	0.615	0.838	0.723	0.454	0.387	0.297	0.277	0.89	0.703	0.654	0.702
NCI-H2085	0.896	1.22	0.973	1.07	1.03	0.825	0.823	0.821	0.824	0.866	0.929	0.471	0.58	0.636	1.22	1.07	0.984	1.05
NCI-H2087	1.02	0.937	1.2	1.23	1.11			0.561	0.764	0.791	0.158	0.161	0.15	0.138	0.882	0.969	0.854	0.931
NCI-H2126	1.13	1.12	1.17	1.31	1.11	0.858	0.774	0.643	0.926	0.813	0.447	0.346	0.336	0.415	0.669	0.725	0.591	0.761
NCI-H2170	1.01	1.03	0.955	0.952	0.982	0.797	0.851	0.804	0.837	0.818	0.951	0.966	0.894	0.992	0.514	0.652	0.518	0.652
NCI-H2228	0.995	0.937	0.902	1.02	0.796	0.667	0.539	0.737	0.528	0.612	0.485	0.287	0.276	0.302	0.561	0.762	0.723	0.633
NCI-H2347	0.85	0.429	1.14	0.614	1.86	0.538	0.555	0.527	0.704	0.621	0.251	0.289	0.256	0.248	0.777	0.544	0.661	0.846
NCI-H2405		1.01	1.06	1.07	1.08	0.941	0.989	0.96	1	0.994	0.461	0.382	0.353	0.381	0.813	0.635	0.584	0.597
NCI-H3122	0.951	0.938	0.821	1.01	0.986	0.962	1.05	1.08	1.12	1	0.181	0.202	0.181	0.2	1.05	1.06	1.06	1.02
PC-3 [JPC-3]	1.01	1.06	1.06	1.03	1.01	0.686	0.71	0.774	0.828	0.789	0.628	0.441	0.513	0.603	0.777	0.716	0.789	0.743
PC-14	0.922	0.997	1	1.01	1.06	0.702	0.867	0.778	0.806	0.771	0.765	0.649	0.696	0.687	0.99	0.69	0.959	0.941
RERF-LC-KJ	0.876	0.866	0.848	0.864	0.892	0.625	0.711	0.745	0.808	0.789	0.84	0.665	0.639	0.685	0.842	0.579	0.846	0.592
SK-LU-1	0.941	0.831	0.846	0.841	0.906	0.792	0.745	0.839	0.743	0.813	0.45	0.413	0.421	0.469	0.958	0.689	0.816	0.42
